Source: article PMC11904948, “Peptide‐Drug Conjugate for Therapeutic Reprogramming of Tumor‐Associated Macrophages in Breast Cancer” (Advanced Science, 2025)

System: YAP
Assay: YAP immunofluorescence in BMDM
Assay type: cell-based, mouse
Settings: day 5 BMDM, 10 µM 4 h, washed, confocal microscopy 3 h later
From the text: We speculated that the observed in vivo effect of MACTIDE‐V could be mediated by the modulation of macrophage phenotype elicited by Verteporfin, a drug that inhibits the co‐transcription factor Yes Associated Protein (YAP), and prevents the anti‐inflammatory shift in macrophages.^[ [26] ^] We therefore analyzed the effect of MACTIDE‐V on YAP localization and phenotypic changes in mouse bone marrow‐derived macrophages (BMDM) in vitro. We first treated BMDM with MACTIDE‐V, MACTIDE, or CtrlPep‐V and evaluated changes in YAP localization 3 h later using confocal microscopy. […] These observations are consistent with the reported effect of Verteporfin sequestering YAP in the cytoplasm.^[ [27], [28] ^]
Figure 6 MACTIDE‐V promotes a YAP‐ mediated anti‐ tumoral switch in bone marrow‐derived macrophages. Day 5 BMDM were incubated for 4 h with 10 µM conjugates, washed, and followed‐up in media. A) YAP Immunofluorescence (shown in red) was analyzed 3 h after treatment and B) phagocytosis of fluorescent E. coli particles at 48 h follow‐up. C) Flow cytometry on BMDM 48 h after treatment. Left panel, GeoMean of MHC II, CD206, CD80, and PD‐L1 in Balb/c BMDM. Median ± interquartile range. […] D) Heatmap of the mRNA expression of genes involved in the functional activation of BMDM, YAP signaling, and adhesion, measured by real‐time PCR 48 h after treatment in BALB/c BMDM. n = 3 independent experiments. […]

**Q.** For “Vert‐Ahx‐AKPCGS‐OH [CtrlPep‐V, reference compound]”, which YAP localization is on record?
**A.** uniformly spread throughout the cell

**Q.** How did the YAP localization turn out when “Vert‐Ahx‐G(CTKSIPPIC)SPGAK‐OH (disulfide) [MACTIDE‐V]” was run?
**A.** excluded YAP from the nucleus
